These results are taken from article PMC9316543, “Characterization, Expression Profiling, and Biochemical Analyses of the Cinnamoyl-CoA Reductase Gene Family for Lignin Synthesis in Alfalfa Plants” (International Journal of Molecular Sciences, 2022).

The test system of one experiment is T1, MsCCR-like1.
T1 construct: His-tagged, pET-28a, E. coli BL21, Ni-NTA; tag removal not mentioned
Nature of the experiment: NADPH oxidation, decrease of A366. Format: biochemical, Medicago sativa. The note with it: NADPH 160 μM, 1x PBS, substrate 30-150 μM. An excerpt: NADPH oxidation, decrease of A366 on MsCCR-like1

For the next experiment, the system named is T2, MsCCR1.
T2 construct: gene CCR1; His-tagged, pET-28a, E. coli BL21, Ni-NTA; tag removal not mentioned
Nature of the experiment: NADPH oxidation, decrease of A366. Format: biochemical, Medicago sativa. Particulars: NADPH 160 μM, 1x PBS, substrate 30-150 μM. An excerpt:
NADPH oxidation, decrease of A366 on MsCCR1

[1] abbreviates: read-out: p-Coumaroyl-CoA / K m.

Read-outs that look alike come from different tables or passages of the source.

As to `CC(C)(COP(=O)(O)OP(=O)(O)OC[C@H]1O[C@@H](n2cnc3c(N)ncnc32)[C@H](O)[C@@H]1OP(=O)(O)O)[C@@H](O)C(=O)NCCC(=O)NCCSC(=O)/C=C/c1ccc(O)c(O)c1` [Caffeoyl-CoA], the Km in the experiment with MsCCR-like1 (read-out: Caffeoyl-CoA / K m) was determined as 48.2 ± 1.75 µM.
Regarding `COc1cc(/C=C/C(=O)SCCNC(=O)CCNC(=O)[C@H](O)C(C)(C)COP(=O)(O)OP(=O)(O)OC[C@H]2O[C@@H](n3cnc4c(N)ncnc43)[C@H](O)[C@@H]2OP(=O)(O)O)ccc1O` [Feruloyl-CoA], in the experiment on MsCCR1 (read-out: Feruloyl-CoA / K m), the Km amounted to 45.2 ± 11.4 µM.
Take `COc1cc(/C=C/C(=O)SCCNC(=O)CCNC(=O)[C@H](O)C(C)(C)COP(=O)(O)OP(=O)(O)OC[C@H]2O[C@@H](n3cnc4c(N)ncnc43)[C@H](O)[C@@H]2OP(=O)(O)O)cc(OC)c1O` [Sinapoyl-CoA]: the Km in the experiment on MsCCR1 (read-out: Sinapoyl-CoA / K m) turned out to be 10.6 ± 1.25 µM.
With `CC(C)(COP(=O)(O)OP(=O)(O)OC[C@H]1O[C@@H](n2cnc3c(N)ncnc32)[C@H](O)[C@@H]1OP(=O)(O)O)[C@@H](O)C(=O)NCCC(=O)NCCSC(=O)/C=C/c1ccc(O)cc1` [p-Coumaroyl-CoA], the Km was 44.1 ± 7.12 µM in the experiment with MsCCR-like1 (setting [1]) and 24.2 ± 4.51 µM with MsCCR1 (setting [1]).
